In patent publication US20160151406A1, “COMBINATION CANCER THERAPY WITH C-MET INHIBITORS AND SYNTHETIC OLIGONUCLEOTIDES” (Mirna Therapeutics, Inc., priority 2014, published 2016):
pIC50: −log10 of the molar value. Read-outs that look alike come from different tables or passages of the source.

Legend:
Type in all cases: cell-based
[1] = system: Hep3b HCC cells; assay: Single-agent cell proliferation (AlamarBlue), Hep3b; conditions: Homo sapiens, 72 h, drug alone, proliferation 3 days post drug treatment, read-out: Tivantinib IC50
Protocol: (§1) Cell culture: HCC cells were maintained in EMEM medium with 10% fetal bovine serum, except Huh7 were maintained in DMEM. All cells were maintained at 37° C. in a humidified of 95% air and 5% CO2.
(§2) miR-Rx34 and tivantinib and EMD1214063 treatment: To determine the IC50 value of each drug alone, 2,000 cells per well were seeded in a 96-well plate format and treated with either tivantinib or miR-Rx34 as follows. (i) miR-Rx34 was reverse-transfected in triplicates in a serial dilution (0.03-30 nM) using RNAiMax lipofectamine. As controls, cells were also transfected with RNAiMax alone (mock). Cells were incubated with AlamarBlue (Invitrogen) 6 days post transfection to determine cellular proliferation. Proliferation data were normalized to mock-transfected cells. (ii) Tivantinib or EMD1214063, prepared as a 10 mM stock solution in dimethyl sulfoxide (DMSO), was added to cells 3 days after seeding at a final concentration ranging from 0.1 to 100 μM for tivantinib and 0.01 and 10 μM for EMD1214063. Solvent alone (1% final DMSO) was added to cells in separate wells as a control. Three days thereafter, cellular proliferation was measured by AlamarBlue and normalized to the solvent control.
(§3) Statistical analysis: Statistical analysis was done using the Excel (Microsoft) and Graphpad software. Averages and standard deviations were calculated from triplicate experiments. […]

[2] = system: C3A HCC cells; assay: Single-agent cell proliferation (AlamarBlue), C3A; conditions: Homo sapiens, 72 h, drug alone, proliferation 3 days post drug treatment
Protocol: as §1, §2, §3

[3] = system: Huh7 HCC cells; assay: Single-agent cell proliferation (AlamarBlue), Huh7; conditions: Homo sapiens, Huh-7, 72 h, drug alone, proliferation 3 days post drug treatment, read-out: Tivantinib IC50
Protocol: as §1, §2, §3

[4] = system: HepG2 HCC cells; assay: Single-agent cell proliferation (AlamarBlue), HepG2; conditions: Homo sapiens, 72 h, drug alone, proliferation 3 days post drug treatment, read-out: Tivantinib IC50
Protocol: as §1, §2, §3

[5] = system: SK-Hep1 HCC cells; assay: Single-agent cell proliferation (AlamarBlue), SK-Hep1; conditions: Homo sapiens, 72 h, drug alone, proliferation 3 days post drug treatment, read-out: EMD1214063 IC50
Protocol: as §1, §2, §3

Q: How did the pIC50 [1] turn out when O=C1NC(=O)[C@@H](c2cn3c4c(cccc24)CCC3)[C@@H]1c1c[nH]c2ccccc12 [Tivantinib, (3R,4R)-3-(5,6-Dihydro-4H-pyrrolo[3,2,1-ij]quinolin-1-yl)-4-(1H-indol-3-yl)-2,5-pyrrolidinedione] was run?
A: The pIC50 was 4.73 to 5.33.

Q: And the pIC50 ([2]; read-out: Tivantinib IC50)?
A: The pIC50 was 5.13 to 5.64.

Q: What about the pIC50 [3] of the same compound?
A: The pIC50 was 5.48 to 5.82.

Q: And the pIC50 [4]?
A: The pIC50 was 4.60 to 5.05.

Q: Which results are given for CN1CCC(COc2cnc(-c3cccc(Cn4nc(-c5cccc(C#N)c5)ccc4=O)c3)nc2)CC1 [EMD1214063, 3-(1-(3-(5-((1-methylpiperidin-4-yl)methoxy)pyrimidin-2-yl)benzyl)-1,6-dihydro-6-oxopyridazin-3-yl)benzonitrile]?
A: pIC50 ([2]; read-out: EMD1214063 IC50): 5.15; pIC50 [5]: 5.17
